From patent publication US4985412A, “Phosphoric acid ester, process for preparing the same, and detergent composition containing the same” (Kao Corporation, priority 1987, dated 1991) come the findings set out here.

Data set [1] is described as follows: Foaming capability (Reverse Stirring Method). The format is physicochemical. The following applies: for Foaming capability (Foam volume): reverse stirring, 40 °C, 1,000 rpm, 30 sec (reversed at every 5 sec), measured after 10 sec. As to the method:
* The conditions of the reverse stirring
Rotation speed: 1,000 rpm
Stirring time: 30 sec. (reversed at every 5 sec.)
Measurement: performed after the test sample was left for 10 sec.

A further data set is described as follows: Krafft point. The data set is classed as physicochemical.
Where [2] appears, read: comparison with sodium dodecyl phosphate, in words.

Consider `CCCCCCCCCCCCOP(=O)(O)O` [1-sodium dodecyl phosphate], for which the “Foaming capability (Foam volume)” value in data set [1] amounted to 260 mL. In “Krafft point”, this molecule displayed a Krafft point of 32 °C.
Regarding `CCCCCCCCCCCCOP(=O)(O)OCC(O)CN(C)CC(=O)O` (centres unmarked) [Example 1, sodium dodecyl 2-hydroxy-3-N-carboxymethyl-N-methylammoniopropyl phosphate], in data set [1] (setting [2]), the “Foaming capability compared with sodium dodecyl phosphate” value is given as “almost the same foaming capability”. For the same molecule, the “Foaming capability (Foam volume)” value in data set [1] turned out to be 250 mL. The molecule also displayed a Krafft point in the data set “Krafft point” below 0 °C. Also, the “Krafft point compared with sodium dodecyl phosphate” value in the data set “Krafft point” (setting [2]) is given as “extremely lower Krafft point”.
`CCCCCCCCCCCCOP(=O)([O-])OCC(O)CO.[Na+]` (centres unmarked) [sodium dodecyl 2,3-dihydroxypropyl phosphate]: in data set [1], the “Foaming capability (Foam volume)” value stood at 240 mL. In addition, the Krafft point in the data set “Krafft point” is below 0 °C.
